Data published in patent EP0057664A2, “Clavam derivatives” (CIBA-GEIGY AG, priority 1981, dated 1982).
Values after ≈ are worked out from the molar mass of the structure shown. “Also recorded” adds a separate entry of the source. Read-outs that look alike come from different tables or passages of the source.

How the values were obtained:
Mucor miehei = assay: Plate agar diffusion test, minimal inhibitory concentration against Mucor miehei; type: cell-based; conditions: Rhizomucor miehei
Method: Die antibakterielle Wirkung kommt sowohl gegen gram-positive wie gram-negative Bakterien zur Geltung, wie z.B. im Platten-Agardiffusionstest in vitro [10 µl/Testrondelle (6 mm ø)] gezeigt werden kann, wo sie bei verschiedenen pathogenen Keimen eine minimale Hemmkonzentration im Bereiche von 1-200 µg/ml zeigen. Von den gegenüber den neuen Verbindungen empfindlichen gram-positiven Bakterien seien z.B. die folgenden genannt: Bacillus cereus, Bacillus subtilis, Clostridium pasteurianum, Corynebacterium rathayi, von den gram-negativen folgende: Agrobacterium tumefaciens, Erwinia amylovorum, Escherichia coli K 12 wild type, Klebsiella aerogenes, Serratia marcescens 13880, Serratia marcescens 30122.
Die antifungische Wirkung tritt praktisch gegenüber den meisten Pilzen auf. So weist das Antibiotikum Tü 1718 und insbesondere die Verbindungen der Formel (IV) im oben genannten Agardiffusionstest eine minimale Hemmkonzentration im Bereiche von ca. 0,1-200 µg/ml gegenüber sehr vielen pathogenen und nicht pathogenen Pilzen, z.B. gegen Pythium debarianum, Mucor hiemalis+, Mucor hiemalis-, Mucor miehei, Trichophyton mentagrophytes, Botrytis cinerea 157, Aspergillus fumigatus, und mehrere andere. So besitzen z.B. die nachstehend aufgeführten spezifischen Verbindungen die folgenden minimalen Hemmkonzentrationen gegenüber Mucor miehei: • Komponente A1 von Antibiotikum Tü 1718, d.h. (2S,5S)-2-(2-Hydroxyäthyl)-clavam = 10 ug/ml
(§1) Bei der […] kann der Plattendiffusionstest dienen, wobei vorzugsweise folgende Testkeime verwendet werden: Clostridium pasteurianum, Escherichia coli und Mucor miehei. Die minimale Hemmkonzentration der Hauptkomponente des Antibiotikums in µg/m1 gegenüber den eben genannten Mikroorganismen ist wie folgt: • Clostridium pasteurianum 50

[1] = Stability solvent-free and in aqueous solution; type: physicochemical
From the text: (§2) Als Aufbewahrungsmittel eignet sich Chloroform. […] Es ist somit möglich, die Verbindungen in Form all jener pharmazeutischen Präparate zu verwenden, die Wasser enthalten, wie insbesondere von wässrigen Lösungen bei der parenteralen oder oralen Applikation, oder Cremen oder Salben oder Tinkturen bei der topischen Gabe.
(§3) Als Aufbewahrungsmittel eignet sich Chloroform. […] Bei der Dünnschichtchromatographie z.B. an Kieselgel-Alufolien kann die Substanz z.B. durch folgende Sprühreagenzien sichtbar gemacht werden: Ehrlich's Reagenz, rot; Vanillin/ ^H2S04, lindgrün; Ninhydrin, gelb mit violettem Rand.

[2] = Solubility in solvents and water; type: physicochemical
From the text: as §2, §3

Clostridium pasteurianum = assay: Plate diffusion test, minimal inhibitory concentration against Clostridium pasteurianum; type: cell-based; conditions: Plattendiffusionstest, read-out: minimale Hemmkonzentration
From the text: as §1

[3] = system: Tumorzellen der Zellinie NS-1; assay: Tumour-inhibiting effect on tumour cells of cell line NS-1; type: cell-based, Maus; conditions: Zellinie NS-1, compared with Actinomycin C
From the text: Das neue Antibiotikum, seine Extrakte und die neuen Verbindungen der Formel (IV) besitzen zudem auch eine tumorhemmende Wirkung, wie in Versuchen an Tumorzellen der Zellinie NS-1, einer Variante der Zelline P 3, die aus Mineralöl-induzierten Plastocytomen der Maus stammen, gezeigt werden kann.

[4] = Agardiffusionstest, read-out: minimale Hemmkonzentration gegenüber Mucor miehei

SMILES: O=C(COc1ccccc1)OCC[C@H]1CN2C(=O)C[C@@H]2O1 [(2S,5S)-2-(2-Phenoxyacetoxyäthyl)-clavam]
- MIC (Mucor miehei; [4]): 0.1 µg/mL (≈ 0.343 µM)

SMILES: O=C1C[C@@H]2O[C@@H](CCO)CN12 [Komponente A1 von Antibiotikum Tü 1718, (2S,5S)-2-(2-Hydroxyäthyl)-clavam]
- Stabilität in lösungsmittelfreiem Zustand ([1]; lösungsmittelfrei): beschränkt stabil
- Stabilität in wässerigen Lösungen ([1]; wässerige Lösungen, pH 5-7): einigermassen gute Stabilität
- MIC (Mucor miehei; [4]): 10 µg/mL (≈ 63.6 µM)
- MIC (Mucor miehei; Plattendiffusionstest, Mucor miehei, read-out: minimale Hemmkonzentration): 10 to 20 µg/mL (≈ 63.6 to 127 µM)
- Löslichkeit in Chloroform, Aceton, Methanol ([2]; Chloroform, Aceton, Methanol): sehr gut; also recorded: gut löslich
- Löslichkeit in Wasser ([2]; Wasser): weniger gut löslich; also recorded: mässig löslich
- MIC (Clostridium pasteurianum): 50 µg/mL (≈ 318 µM)
- tumorhemmende Wirkung [3]: ca. die Hälfte der tumorhemmenden Wirkung von Actinomycin C
